Measurements: US6605639B1, “Ligands of nuclear receptor” (Nuclear Receptor Research, Ltd., priority 1998, dated 2003)

Experiments:
[1] = biological target: T1, human RXRα (Homo sapiens, UniProt P19793); test: RXR reporter gene (luciferase) transfer assay in COS-1 cells; type: cell-based; conditions: for degree of increase in the luciferase activity, RXR vector: control lot = 1
T1 construct: expressed in transfected cells; host or cells: COS-1 cells
T1 sequence (P19793 1-462): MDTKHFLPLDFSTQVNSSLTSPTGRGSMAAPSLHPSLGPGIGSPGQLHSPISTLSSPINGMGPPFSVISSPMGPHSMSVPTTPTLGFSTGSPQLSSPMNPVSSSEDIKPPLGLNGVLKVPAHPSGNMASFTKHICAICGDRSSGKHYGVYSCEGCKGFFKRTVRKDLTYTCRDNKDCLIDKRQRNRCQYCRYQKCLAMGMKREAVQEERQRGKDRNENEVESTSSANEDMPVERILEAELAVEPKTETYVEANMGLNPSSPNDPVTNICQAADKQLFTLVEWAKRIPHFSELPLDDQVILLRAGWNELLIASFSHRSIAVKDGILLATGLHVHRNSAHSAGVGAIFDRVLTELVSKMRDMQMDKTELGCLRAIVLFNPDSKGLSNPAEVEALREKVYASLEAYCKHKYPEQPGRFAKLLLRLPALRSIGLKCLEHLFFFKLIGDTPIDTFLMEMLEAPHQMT
Method: A plasmid containing a reporter gene regulated in expression by RXR response element and an RXRα expression plasmid were transferred into COS-1 cells. Then these cells were treated with the compounds of the present invention such as ascochlorin.
Plasmids were transferred into COS-1 cells. Gene transfer was carried out in a conventional manner with the use of Lipofect AMINE reagent (Life Technologies). 1×10^5 cells were dispersed in 2 ml of Dulbecco's modified Eagle medium (DMEM) containing 10% of fetal calf serum and poured into a 35 mm Petri dish. After culturing in a CO2 incubator for 17 hours, the medium was removed and the cells adhering to the Petri dish were washed with phosphate-buffered saline (PBS). Then gene transfer was carried out by using Lipofect AMINE reagent. Namely, 500 ml of a minimum serum medium OptiMEM (Life Technologies) containing […] of a plasmid containing a luciferase gene under the regulation in expression by RXR response element (PRXRL: RXRE-SV40 luciferase; a reporter gene plasmid wherein RXRE has been ligated to SV40 promoter and luciferase cDNA, under the regulation in expression thereby, has been located downstream thereof); […] of an RXRα expression plasmid (pRXRα; a plasmid wherein human RXRα CDNA has been ligated to the downstream of a cytomegalovirus promoter to express human RXRα in mammalian cells); and 2 mg of a β-galactosidase gene plasmid to assess the gene transfer ratio (pCH110; Pharmacia) were pre-mixed with 500 ml of OptiMEM containing 50 ml of Lipofec AMINE, and the resultant mixture was maintained at room temperature for 15 minutes. 100 ml of this liquid mixture was mixed with 400 ml of OptiMEM, and the medium mixture was divided to the Petri dish. After maintaining in a CO2 incubator at 37° C. for 3 hours, the gene transfer medium was sucked off from the Petri dish and DMEM medium containing a test substance and 10% of serum (activated carbon-treated) was added thereto followed by culturing at 37° C. for 20 hours. […] Further, dimethyl sulfoxide (final concentration: 0.1%) was added as the solvent for the test substance.
(§1) After sucking off the medium from the Petri dish, […] of a cultured cell lysing solution (25 mM Tris phosphate buffer (pH 7.8), 2 mM 1,2-diaminocyclohexane-N, N,N′,N′-tetraacetate, 10% glycerol, 1% Triton X-100) was added and the cells were peeled off with a rubber policeman and collected. After completely disrupting the cells by freezing and melting, the cells were centrifuged at 4° C. (15,000 rpm, 2 min) and the supernatant thus obtained was employed as a sample for measurement. To 20 ml of the supernatant, 100 ml of a luciferase substrate solution (2.14 mg of Co-A, 100 ml of 470 mM D-Luciferin, 200 ml of 530 mM ATP, 2 ml of DTT-Tricine buffer (pH 7.8)) was added and the fluorescence intensity was measured with a luminometer (ATTO Luminosensor AB-2000). To measure the β-galactosidase for determining the gene transfer efficiency, using a Luminescent β-galactosidase detection kit II (Clontech), fluorescence intensity was measured by a luminometer.

[2] = biological target: T2, RAR (Homo sapiens, UniProt P10276); test: RAR reporter gene (luciferase) transfer assay in COS-1 cells; type: cell-based; conditions: control lot = 1
T2 construct: expressed in transfected cells; host or cells: COS-1 cells
T2 sequence (P10276 1-462): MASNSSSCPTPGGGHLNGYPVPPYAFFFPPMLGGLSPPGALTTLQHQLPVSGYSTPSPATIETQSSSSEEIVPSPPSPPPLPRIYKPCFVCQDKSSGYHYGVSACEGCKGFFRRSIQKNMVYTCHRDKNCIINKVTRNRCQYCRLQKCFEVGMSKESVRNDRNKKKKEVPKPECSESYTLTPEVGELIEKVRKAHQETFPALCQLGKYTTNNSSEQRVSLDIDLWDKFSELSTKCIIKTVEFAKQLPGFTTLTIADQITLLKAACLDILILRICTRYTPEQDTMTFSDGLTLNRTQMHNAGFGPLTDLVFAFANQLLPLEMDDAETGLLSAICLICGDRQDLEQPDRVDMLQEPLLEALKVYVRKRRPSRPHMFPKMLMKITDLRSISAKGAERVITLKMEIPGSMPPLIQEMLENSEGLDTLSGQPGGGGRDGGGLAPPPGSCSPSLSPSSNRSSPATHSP
Excerpt: Each value means the degree of increase in the luciferase activity, which is expressed by referring the luciferase activity in the control lot as to 1, caused by the addition of the corresponding compound.
As a substitute for a plasmid containing a luciferase gene under the regulation in expression by RXR response element (pRXRL:RXRE-SV40 luciferase), and the RXRα expression plasmid (pRXRα); a plasmid containing a luciferase gene under the regulation in expression by RXR response element (pRARL:RASE-SV40 luciferase), and a […] (pRARα) were transferred into COS-1 cells. Transfectants with these plasmids and the compound of the present invention (concentration: 10^−4 to 10^−7 M) were added to the culture.
as §1

3-[5-[l(R),2(S),6(S)-trimethyl-3-oxocylohexyl]-3-methyl-2,4-pentadienyl]-2,4-dihydroxy-5-chloro-6-methylbenzaldehyde [Compound-1]
fold increase in luciferase reporter activity (control = 1) ([1]; 10^−6 M): 2.03 | degree of increase in the luciferase activity, RXR vector ([1]; 10^−6 M): 61 | degree of increase in the luciferase activity, RAR vector ([2]; 10^−6 M): 30

COc1c(Cl)c(C)c(C=O)c(O)c1C/C=C(C)/C=C/[C@@]1(C)[C@H](C)CCC(=O)[C@@H]1C [Compound-6, 4-O-methylASC]
fold increase in luciferase reporter activity (control = 1) ([1]; 5 × 10^−6 M): 1.57 | degree of increase in the luciferase activity, RXR vector ([1]; 5 × 10^−6 M): 55 | degree of increase in the luciferase activity, RAR vector ([2]; 5 × 10^−6 M): 35

CC(/C=C/[C@@]1(C)[C@H](C)CCC(=O)[C@@H]1C)=C\Cc1c(O)c(C=O)c(C)c(Cl)c1OCC(=O)O [Compound-14, 4-O-carboxymethylASC]
fold increase in luciferase reporter activity (control = 1) ([1]; 10^−5 M): 1.23 | degree of increase in the luciferase activity, RXR vector ([1]; 10^−5 M): 47 | degree of increase in the luciferase activity, RAR vector ([2]; 10^−5 M): 38

CC(/C=C/C1(C)C(C)C=CC(=O)C1C)=C\Cc1c(O)c(Cl)c(C)c(C=O)c1O (stereo not drawn) [Compound-26]
fold increase in luciferase reporter activity (control = 1) ([1]; 4 × 10^−7 M): 1.91 | degree of increase in the luciferase activity, RXR vector ([1]; 4 × 10^−7 M): 63 | degree of increase in the luciferase activity, RAR vector ([2]; 4 × 10^−7 M): 33
